The inhibition is the relative decrease from the control value, in per cent.

T1 sequence (P21453 whole entry): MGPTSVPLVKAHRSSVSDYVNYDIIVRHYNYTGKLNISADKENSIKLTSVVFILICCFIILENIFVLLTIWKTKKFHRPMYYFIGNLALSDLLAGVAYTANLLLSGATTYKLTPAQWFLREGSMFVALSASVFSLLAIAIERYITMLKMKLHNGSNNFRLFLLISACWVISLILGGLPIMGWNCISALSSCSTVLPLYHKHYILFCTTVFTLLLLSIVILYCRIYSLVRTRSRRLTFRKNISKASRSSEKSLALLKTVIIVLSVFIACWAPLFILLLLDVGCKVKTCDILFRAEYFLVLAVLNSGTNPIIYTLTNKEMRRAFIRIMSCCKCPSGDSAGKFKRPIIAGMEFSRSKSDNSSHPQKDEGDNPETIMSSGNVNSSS

The test has as its target T1, Edg-1/S1P1 receptor (Homo sapiens, UniProt P21453).
T1 construct: expressed in transfected cells; host or cells: human osteogenic sarcoma U2OS cells: Edg-1 Transfluor U2OS WT Clone #37 (assay I), Edg-1 Transfluor U2OS Clone #3 (assay II)
In words: In vitro cell based receptor activation assay - Transfluor assay (assay I or II; beta-arrestin GFP relocalization after S1P stimulation). The following applies: at 3.50 μM (titrated from top concentration 10 μM). The method in brief:
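U2OS cells overexpressing S1P1 with a beta-arrestin-GFP construct were pre-incubated with compound for 15 min at room temperature, then stimulated with S1P for 45 min at 37 °C. In assay I, final S1P was 375 nM or 750 nM and compound was a 9-point 3-fold series from 100 μM, in 1% DMSO. Cells were fixed and Hoechst-stained, GFP relocalization was imaged, and EC50 values were fitted.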
On to `CCn1c(C(C)(C)NS(=O)(=O)c2ccc(F)cc2)nc2cnc(C(F)(F)F)cc21` [Example 153, N-(2-(1-Ethyl-6-(trifluoromethyl)-1H-imidazo[4,5-c]pyridin-2-yl)propan-2-yl)-4-fluorobenzenesulfonamide], for which the inhibition at 3.5 µM was determined as 82%.

`CCn1c(C(C)(C)NS(=O)(=O)c2ccc(C#N)cc2)nc2cnc(C(F)(F)F)cc21` [Example 154, 4-Cyano-N-(2-(1-ethyl-6-(trifluoromethyl)-1H-imidazo[4,5-c]pyridin-2-yl)propan-2-yl)benzenesulfonamide] displayed an inhibition at 3.5 µM of 77.3%.

`CCn1c(C(C)(C)NS(=O)(=O)c2ccc(C#N)nc2)nc2cnc(C(F)(F)F)cc21` [Example 155, 6-Cyano-N-(2-(1-ethyl-6-(trifluoromethyl)-1H-imidazo[4,5-c]pyridin-2-yl)propan-2-yl)pyridine-3-sulfonamide] displayed an inhibition at 3.5 µM of 78.9%.

Compound `CCn1c([C@@H](C)NS(=O)(=O)c2ccc(OC(C)C)cc2)nc2ccc(C(F)(F)F)cc21` [Example 156] displayed an inhibition at 3.5 µM of 80.7%.

Regarding `CCOc1ccc(S(=O)(=O)N[C@H](C)c2nc3ccc(C(F)(F)F)cc3n2CC)cc1` [Example 157, (R)-4-Ethoxy-N-(1-(1-ethyl-6-(trifluoromethyl)-1H-benzo[d]imidazol-2-yl)ethyl)benzenesulfonamide], the inhibition at 3.5 µM amounted to 88.4%.

In turn, `CCn1c([C@@H](C)NS(=O)(=O)c2ccc(C(N)=O)n2C)nc2ccc(C(F)(F)F)cc21` [Example 158, (R)-5-(N-(1-(1-Ethyl-6-(trifluoromethyl)-1H-benzo[d]imidazol-2-yl)ethyl)sulfamoyl)-1-methyl-1H-pyrrole-2-carboxamide] showed an inhibition at 3.5 µM of 93.6%.

`CCn1c([C@@H](C)NS(=O)(=O)c2ccc(-c3ccccc3)cc2)nc2ccc(C(F)(F)F)cc21` [Example 159, (R)-N-(1-(1-Ethyl-6-(trifluoromethyl)-1H-benzo[d]imidazol-2-yl)ethyl)biphenyl-4-sulfonamide] registered an inhibition at 3.5 µM of 19.8%.

Turning to `CCn1c([C@@H](C)NS(=O)(=O)c2cc(C)nc(C)c2)nc2ccc(C(F)(F)F)cc21` [Example 160, (R)-N-(1-(1-Ethyl-6-(trifluoromethyl)-1H-benzo[d]imidazol-2-yl)ethyl)-2,6-dimethylpyridine-4-sulfonamide], at 3.5 µM the inhibition was 90.3%.

`CCn1c([C@@H](C)NS(=O)(=O)c2ccnc(C)c2)nc2ccc(C(F)(F)F)cc21` [Example 161, (R)-N-(1-(1-Ethyl-6-(trifluoromethyl)-1H-benzo[d]imidazol-2-yl)ethyl)-2-methylpyridine-4-sulfonamide] showed an inhibition at 3.5 µM of 91.4%.

`CCn1c([C@@H](C)NS(=O)(=O)c2cncc(Br)c2)nc2ccc(C(F)(F)F)cc21` [Example 162]: at 3.5 µM the inhibition was 90.3%.

For the compound `CCn1c([C@@H](C)NS(=O)(=O)c2ccc[n+]([O-])c2)nc2ccc(C(F)(F)F)cc21` [Example 164, (R)-3-(N-(1-(1-ethyl-6-(trifluoromethyl)-1H-benzo[d]imidazol-2-yl)ethyl)sulfamoyl)pyridine 1-oxide], the inhibition at 3.5 µM was found to be 19.5%.

As for `CCn1c([C@@H](C)NS(=O)(=O)c2cc[n+]([O-])cc2)nc2ccc(C(F)(F)F)cc21` [Example 165, (R)-4-(N-(1-(1-Ethyl-6-(trifluoromethyl)-1H-benzo[d]imidazol-2-yl)ethyl)sulfamoyl)pyridine 1-oxide], 3.5 µM produced 75.6% inhibition.

The compound `CCn1c([C@@H](C)NS(=O)(=O)c2ccc(CCl)cc2)nc2ccc(C(F)(F)F)cc21` [Example 166, (R)-4-(Chloromethyl)-N-(1-(1-ethyl-6-(trifluoromethyl)-1H-benzo[d]imidazol-2-yl)ethyl)benzenesulfonamide] gave an inhibition at 3.5 µM of 86%.

Turning to `CCn1c([C@@H](C)NS(=O)(=O)c2ccc(CC#N)cc2)nc2ccc(C(F)(F)F)cc21` [Example 167, (R)-4-(cyanomethyl)-N-(1-(1-ethyl-6-(trifluoromethyl)-1H-benzo[d]imidazol-2-yl)ethyl)benzenesulfonamide], the inhibition at 3.5 µM was 86%.

Turning to `CCn1c([C@@H](C)NS(=O)(=O)c2ccc(NN)nc2)nc2ccc(C(F)(F)F)cc21` [Example 168, (R)—N-(1-(1-ethyl-6-(trifluoromethyl)-1H-benzo[d]imidazol-2-yl)ethyl)-6-hydrazinylpyridine-3-sulfonamide], testing at 3.5 µM gave an inhibition of 77.1%.

As to `CCn1c(C(C)NS(=O)(=O)c2cnc(N)c(Cl)c2)nc2ccc(C(F)(F)F)cc21` (stereo not shown) [Example 169, 6-amino-5-chloro-N-(1-(1-ethyl-6-(trifluoromethyl)-1H-benzo[d]imidazol-2-yl)ethyl)pyridine-3-sulfonamide], the inhibition at 3.5 µM came to 87.1%.

With `CCn1c(C(C)NS(=O)(=O)c2ccc(N)nc2)nc2ccc(C(F)(F)F)cc21` (stereo not shown) [Example 170, 6-amino-N-(1-(1-ethyl-6-(trifluoromethyl)-1H-benzo[d]imidazol-2-yl)ethyl)pyridine-3-sulfonamide], the inhibition at 3.5 µM is 83.1%.

For `CCn1c(C(C)NS(=O)(=O)c2ccc(=O)[nH]c2)nc2ccc(C(F)(F)F)cc21` (stereo not shown) [Example 171, N-(1-(1-ethyl-6-(trifluoromethyl)-1H-benzo[d]imidazol-2-yl)ethyl)-6-oxo-1,6-dihydropyridine-3-sulfonamide], 3.5 µM produced 73.3% inhibition.

`CCn1c([C@@H](C)NS(=O)(=O)c2ccc(C(=O)NC)nc2)nc2ccc(C(F)(F)F)cc21` [Example 172, (R)-5-[1-(1-Ethyl-6-trifluoromethyl-1H-benzoimidazol-2-yl)-ethylsulfamoyl]-pyridine-2-carboxylic acid methylamide]: the inhibition at 3.5 µM is 69.1%.

Compound `CCn1c([C@@H](C)NS(=O)(=O)c2ccc(C#N)nc2)nc2cnc(C3CC3)cc21` [Example 173, 6-Cyano-pyridine-3-sulfonic acid [1-(6-cyclopropyl-1-ethyl-1H-imidazo[4,5-c]pyridin-2-yl)-ethyl]-amide] came in with an inhibition at 3.5 µM of 81.9%.

As to `CCn1c([C@@H](C)NS(=O)(=O)c2ccc(C(N)=O)nc2)nc2cnc(C3CC3)cc21` [Example 174, 5-[1-(6-Cyclopropyl-1-ethyl-1H-imidazo[4,5-c]pyridin-2-yl)-ethylsulfamoyl]-pyridine-2-carboxylic acid amide], the inhibition at 3.5 µM was found to be 87.8%.

For `CCn1c(C(C)(C)NS(=O)(=O)c2ccc(C#N)cc2)nc2ncccc21` [Example 176, 4-Cyano-N-[1-(1-ethyl-1H-imidazo[4,.5-b]pyridin-2-yl)-1-methylethyl] benzenesulfonamide], the inhibition at 3.5 µM was found to be 36.3%.

Turning to `CCn1c(C(C)(C)NS(=O)(=O)c2ccc(C#N)nc2)nc2ncccc21` [Example 177, 6-cyano-N-(2-(1-ethyl-1H-imidazo[4,5-b]pyridin-2-yl)propan-2-yl)pyridine-3-sulfonamide], testing at 3.5 µM gave an inhibition of 3.55%.

`CCn1c(C(C)(C)NS(=O)(=O)c2ccc(C(N)=O)nc2)nc2ncccc21` [Example 178, 5-({[1-(1-Ethyl-1H-imidazo[4,5-b]pyridin-2-yl)-1-methylethyl]amino}sulfonyl)pyridine-2-carboxamide] registered an inhibition at 3.5 µM of 8.27%.

`CCn1c([C@@H](C)NS(=O)(=O)c2ccc(F)cc2)nc2ncc(C(F)(F)F)cc21` [Example 179, N-{(1R)-1-[1-Ethyl-6-(trifluoromethyl)-1H-imidazo[4,5-b]pyridin-2-yl]ethyl}-4-fluorobenzene sulfonamide] came in with an inhibition at 3.5 µM of 90.5%.

For the compound `CCn1c([C@@H](C)NS(=O)(=O)c2ccc(C#N)cc2)nc2ncc(C(F)(F)F)cc21` [Example 180, 4-Cyano-N-{(1R)-1-[1-ethyl-6-(trifluoromethyl)-1H-imidazo[4,5-b]pyridin-2-yl]ethyl}benzenesulfonamide], the inhibition at 3.5 µM was 91.1%.

As for `CCn1c([C@@H](C)NS(=O)(=O)c2ccc(C#N)nc2)nc2ncc(C(F)(F)F)cc21` [Example 181, 6-Cyano-N-{(1R)-1-[1-ethyl-6-(trifluoromethyl)-1H-imidazo[4,5-b]pyridin-2-yl]ethyl}pyridine-3-sulfonamide], at 3.5 µM the inhibition was 90.6%.

`CCn1c([C@@H](C)NS(=O)(=O)c2ccc(NC)nc2)nc2ccc(C(F)(F)F)cc21` [Example 182, N-{(1R)-1-[1-Ethyl-6-(trifluoromethyl)-1H-benzimidazol-2-yl]ethyl}-6-(methylamino)pyridine-3-sulfonamide] registered an inhibition at 3.5 µM of 92.5%.

Compound `CCn1c(C(C)(C)NS(=O)(=O)c2ccc(C#N)cc2)nc2cnc(C3CC3)cc21` [Example 185, 4-Cyano-N-[1-(6-cyclopropyl-1-ethyl-1H-imidazo[4,5-c]pyridin-2-yl)-1-methyl-ethyl]-benzenesulfonamide] came in with an inhibition at 3.5 µM of 65%.

Take `CCn1c(C(C)(C)NS(=O)(=O)c2ccc(F)cc2)nc2cnc(C3CC3)cc21` [Example 186, 4-Fluoro-N-[1-(6-cyclopropyl-1-ethyl-1H-imidazo[4,5-c]pyridin-2-yl)-1-methyl-ethyl]-benzenesulfonamide]: the inhibition at 3.5 µM was 56.5%.

Regarding `CCn1c([C@@H](C)NS(=O)(=O)c2cccn2C)nc2ccc(C(F)(F)F)cc21` [Example 187, (R)—N-(1-(1-Ethyl-6-(trifluoromethyl)-1H-benzo[d]imidazol-2-yl)ethyl)-1-methyl-1H-pyrrole-2-sulfonamide], the inhibition at 3.5 µM came to 86.2%.
